Target: T1, human recombinant COX-2 (Homo sapiens, UniProt P35354)
T1 construct: purchased Cayman
T1 sequence (P35354 18-604): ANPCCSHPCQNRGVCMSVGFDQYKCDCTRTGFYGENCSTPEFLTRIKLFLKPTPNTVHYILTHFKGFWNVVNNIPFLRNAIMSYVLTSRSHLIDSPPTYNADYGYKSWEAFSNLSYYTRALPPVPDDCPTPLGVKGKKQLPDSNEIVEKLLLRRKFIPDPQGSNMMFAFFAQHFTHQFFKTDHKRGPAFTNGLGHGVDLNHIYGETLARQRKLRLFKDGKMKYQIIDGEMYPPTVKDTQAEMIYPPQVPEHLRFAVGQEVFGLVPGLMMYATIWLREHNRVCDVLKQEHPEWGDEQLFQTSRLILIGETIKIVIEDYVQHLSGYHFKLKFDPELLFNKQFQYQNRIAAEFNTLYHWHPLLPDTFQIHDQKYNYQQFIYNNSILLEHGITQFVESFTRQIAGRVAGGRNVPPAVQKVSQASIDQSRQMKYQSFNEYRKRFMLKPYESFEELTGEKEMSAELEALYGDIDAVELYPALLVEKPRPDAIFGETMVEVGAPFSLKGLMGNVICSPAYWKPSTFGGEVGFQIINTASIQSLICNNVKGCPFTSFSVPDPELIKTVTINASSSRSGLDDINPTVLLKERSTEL
Test: Colorimetric COX Inhibitor Screening Assay (Cayman), COX-2 inhibitory effect
Format: biochemical
Method: Cayman’s Colorimetric COX Inhibitor Screening Assay provides a convenient method for human recombinant COX-2 to screen isozyme-specific inhibitors. The assay measures the peroxidase component of COXs. The peroxidase activity is assayed colorimetrically by monitoring the appearance of oxidized N′,N,N,N′-tetramethyl-p-phenylenediamine (TMPD) at 590 nm. The COX-2 assay consisted of a 200 µL reaction mixture containing 150 µL assay buffer, 10 µL Heme, 10 µL COX-2, 20 µL Colorimetric Substrate, and 10 µL test solution (1, 5, 10, 20, 80, 100 µmol·L^−1). The reactions were initiated by quickly adding 10 µL Arachidonic Acid, then incubating for 2 min at room temperature.

Which IC50 does the source give for C[C@H](CCCO)[C@H]1CC[C@@]2(C)[C@@H]3CC=C4[C@@H](CC[C@H](O)C4(C)C)[C@]3(C)CC[C@]12C [Compound 4, 25,26,27-trinorcucurbita-5-ene-3β,24-diol] here?
The IC50 was 3.98 ± 0.32 µM.

With CC(C=CC(O)C(C)(C)O)C1CCC2(C)C3CC=C4C(CCC(O)C4(C)C)C3(C)CCC12C (stereo not drawn) [Compound 1, cucurbita-5, 22-diene-3β, 24S, 25-triol] as the molecule, how does the IC50 read?
The IC50 was greater than 100 µM.

C[C@H](C/C=C/C(C)(C)O)[C@H]1CC[C@@]2(C)[C@@H]3CC=C4[C@@H](CC[C@H](O)C4(C)C)[C@]3(C)CC[C@]12C [Compound 9, cucurbita-5,23-diene-3β,25-diol] was tested. Which IC50 did it give?
The IC50 was greater than 100 µM.

With CC(CC=CC(C)(C)O)C1CCC2(C)C3CCC4(C)C(C)C(=O)CCC4C3(C)CCC12C (stereo not drawn) [Compound 7, 18R-D:A-friedoeuph-20-ene-22-ol-3-one] as the molecule, how does the IC50 read?
Its IC50 is greater than 100 µM.

Which IC50 does the source give for C[C@H](CCC(=O)O)[C@H]1CC[C@@]2(C)[C@@H]3CC=C4[C@@H](CC[C@H](O)C4(C)C)[C@]3(C)CC[C@]12C [Compound 5, 25,26,27-trinorcucurbita-5-ene-3β-ol-24-acid] here?
Its IC50 is 19.5 ± 1.87 µM.

With C[C@H](C/C=C/C(C)(C)O)[C@H]1CC[C@@]2(C)[C@@H]3C[C@H]4O[C@@]45[C@@H](CC[C@H](O)C5(C)C)[C@]3(C)CC[C@]12C [Compound 3, cucurbita-5β,6β-epoxy-23-ene-3β, 25-diol] as the molecule, how does the IC50 read?
The IC50 was greater than 100 µM.

For C[C@H](CC[C@H](O)C(C)(C)O)[C@H]1CC[C@@]2(C)[C@@H]3CC=C4[C@@H](CC[C@H](O)C4(C)C)[C@]3(C)CC[C@]12C [Compound 2, cucurbita-5-ene-3β,24S,25-triol], which IC50 is on record?
The IC50 was 18.9 ± 1.65 µM.

For C[C@H](CCO)[C@H]1CC[C@@]2(C)[C@@H]3CC=C4[C@@H](CC[C@H](O)C4(C)C)[C@]3(C)CC[C@]12C [Compound 6, 24,25,26,27-tetranorcucurbita-5-ene-3β,23-diol], which IC50 is on record?
The IC50 was 31 ± 2.64 µM.

For C=C(C)[C@@H](O)CC[C@@H](C)[C@@H]1CC[C@]2(C)[C@H]3CC[C@@]4(C)[C@@H](CCC(=O)[C@@H]4C)[C@]3(C)CC[C@@]12C [Compound 8], which IC50 is on record?
Its IC50 is greater than 100 µM.
